Test results: ChEMBL document CHEMBL1201862, “PubChem BioAssay data set” (2004)
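These data come from cells grown in 96-well plates and exposed to compound for 48 hours at five concentrations. Abbreviation: GI50, concentration required for 50% inhibition of growth.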 Activity calls are given as the source filed them. No stated cut-off is given here; in the data, active = GI50 up to about 1.1 µM and inactive = higher.

How the values were obtained:
Assay in all cases: inhibition of tumour cell growth, NCI panel, 48 h
CAKI-1 = test system: CAKI-1
MDA-MB-435 = test system: MDA-MB-435
OVCAR-8 = test system: OVCAR-8
SNB-75 = test system: SNB-75
A498 = test system: A498
SK-MEL-5 = test system: SK-MEL-5
MDA-MB-231 = test system: MDA-MB-231
MDA-N = test system: MDA-N
NCI/ADR-RES = test system: NCI/ADR-RES
M14 = test system: M14
UACC-257 = test system: UACC-257
OVCAR-3 = test system: OVCAR-3
PC-3 = test system: PC-3
Malme-3M = test system: Malme-3M
LOX IMVI = test system: LOX IMVI
NCI-H226 = test system: NCI-H226
UO-31 = test system: UO-31
SNB-19 = test system: SNB-19
EKVX = test system: EKVX
OVCAR-4 = test system: OVCAR-4
786-0 = test system: 786-0
HCT-116 = test system: HCT-116
SF-268 = test system: SF-268
T47D = test system: T47D
COLO 205 = test system: COLO 205
ACHN = test system: ACHN
HCC 2998 = test system: HCC 2998
A549 = test system: A549
KM12 = test system: KM12
OVCAR-5 = test system: OVCAR-5
Hs-578T = test system: Hs-578T
RPMI-8226 = test system: RPMI-8226
HT-29 = test system: HT-29
UACC-62 = test system: UACC-62
NCI-H23 = test system: NCI-H23
MOLT-4 = test system: MOLT-4
SF-295 = test system: SF-295
SN12C = test system: SN12C
HOP-62 = test system: HOP-62
SK-MEL-2 = test system: SK-MEL-2
DU-145 = test system: DU-145
IGROV-1 = test system: IGROV-1
SF-539 = test system: SF-539
HCT-15 = test system: HCT-15
BT-549 = test system: BT-549
MCF7 = test system: MCF7
TK-10 = test system: TK-10
SW-620 = test system: SW-620
HL-60 = test system: HL-60
SK-OV-3 = test system: SK-OV-3
RXF 393 = test system: RXF 393
CCRF-CEM = test system: CCRF-CEM
K562 = test system: K562
NCI-H522 = test system: NCI-H522
HOP-92 = test system: HOP-92
SR = test system: SR
U-251 = test system: U-251

With CC(=O)C1(C)CC(C#N)(C#N)C(C#N)=C1N (configuration not stated) the GI50 (CAKI-1) was 66.8 µM (inactive), the GI50 (MDA-MB-435) was > 100 µM (inactive) and the GI50 (OVCAR-8) was > 100 µM (inactive). For the same molecule, the GI50 (SNB-75) was > 100 µM (inactive), the GI50 (A498) was > 100 µM (inactive) and the GI50 (SK-MEL-5) was > 100 µM (inactive). The GI50 (MDA-MB-231) was > 100 µM (inactive), the GI50 (MDA-N) was > 100 µM (inactive) and the GI50 (NCI/ADR-RES) was > 100 µM (inactive). For the same molecule, the GI50 (M14) was > 100 µM (inactive), the GI50 (UACC-257) was > 100 µM (inactive) and the GI50 (OVCAR-3) was > 100 µM (inactive). The GI50 (PC-3) was > 100 µM (inactive), the GI50 (Malme-3M) was > 100 µM (inactive) and the GI50 (LOX IMVI) was > 100 µM (inactive). The GI50 (NCI-H226) was > 100 µM (inactive), the GI50 (UO-31) was > 100 µM (inactive) and the GI50 (SNB-19) was > 100 µM (inactive). The GI50 (EKVX) was 26.5 µM (inactive), the GI50 (OVCAR-4) was > 100 µM (inactive) and the GI50 (786-0) was > 100 µM (inactive). The GI50 (HCT-116) was > 100 µM (inactive), the GI50 (SF-268) was > 100 µM (inactive) and the GI50 (T47D) was > 100 µM (inactive). For the same molecule, the GI50 (COLO 205) was > 100 µM (inactive), the GI50 (ACHN) was > 100 µM (inactive) and the GI50 (HCC 2998) was > 100 µM (inactive). For the same molecule, the GI50 (A549) was 25.1 µM (inactive), the GI50 (KM12) was > 100 µM (inactive) and the GI50 (OVCAR-5) was > 100 µM (inactive). For the same molecule, the GI50 (Hs-578T) was > 100 µM (inactive), the GI50 (RPMI-8226) was > 100 µM (inactive) and the GI50 (HT-29) was > 100 µM (inactive). The GI50 (UACC-62) was > 100 µM (inactive), the GI50 (NCI-H23) was > 100 µM (inactive) and the GI50 (MOLT-4) was > 100 µM (inactive). For the same molecule, the GI50 (SF-295) was > 100 µM (inactive), the GI50 (SN12C) was > 100 µM (inactive) and the GI50 (HOP-62) was > 100 µM (inactive). The GI50 (SK-MEL-2) was > 100 µM (inactive), the GI50 (DU-145) was > 100 µM (inactive) and the GI50 (IGROV-1) was > 100 µM (inactive). The GI50 (SF-539) was > 100 µM (inactive), the GI50 (HCT-15) was over 100 µM and the GI50 (BT-549) was > 100 µM (inactive). The GI50 (MCF7) was > 100 µM (inactive), the GI50 (TK-10) was > 100 µM (inactive) and the GI50 (SW-620) was > 100 µM (inactive). The GI50 (HL-60) was > 100 µM (inactive), the GI50 (SK-OV-3) was > 100 µM (inactive) and the GI50 (RXF 393) was > 100 µM (inactive). For the same molecule, the GI50 (CCRF-CEM) was > 100 µM (inactive), the GI50 (K562) was > 100 µM (inactive) and the GI50 (NCI-H522) was > 100 µM (inactive). The GI50 (HOP-92) was 21 µM (inactive), the GI50 (SR) was 56.2 µM (inactive) and the GI50 (U-251) was > 100 µM (inactive).
